Data reported in ChEMBL document CHEMBL1155176, “Investigating Toll-like receptor agonists for potential to treat hepatitis C virus infection” (Antimicrob Agents Chemother, 2007).
The source made the active and inactive calls. The calls are words filed in the database; no cut-off is given here. Residues, ends and D or L forms follow the SMILES beside them. *: point of attachment. X1 = CCCCCCCCCCCCCCCC(=O)OCC(C*)OC(=O)CCCCCCCCCCCCCCC; Palmitoyl = CCCCCCCCCCCCCCCC(=O)*

What was measured:
PBMC [1] = test: Toxic induction of IL1-beta level in human PBMC assessed as drug level causing maximal cytokine induction after 24 hrs relative to control; format: toxicity, cell-based
PBMC [2] = test: Induction of IFNalpha2a level in human PBMC assessed as drug level causing maximal cytokine induction after 24 hrs relative to control; format: functional
PBMC [3] = test: Toxic induction of IL6 level in human PBMC assessed as drug level causing maximal cytokine induction after 24 hrs relative to control; format: toxicity, cell-based
Hepatitis C virus [4] = test: Antiviral activity against HCV infected human Huh7 replicon cells treated with drug-induced human PBMC supernatants assessed as viral levels by luciferase assay; format: functional, organism-based; conditions: Hepacivirus hominis
Hepatitis C virus [5] = test: Antiviral activity against HCV infected human Huh7 replicon cells assessed as viral levels by luciferase assay; format: functional, organism-based; conditions: Hepacivirus hominis; Huh-7
PBMC [6] = test: Increase in 2',5'-oligoadenylate synthase level in human PBMC after 24 hrs by PCR method relative to control; format: functional, cell-based
PBMC [7] = test: (§1) Increase in IFNalpha level in human PBMC after 24 hrs relative to control; format: functional, cell-based
Hepatitis C virus [8] = test: Antiviral activity against HCV infected human Huh7 replicon cells treated with 200 nM drug-induced human PBMC supernatants assessed as viral levels in presence of type I IFN receptor antibody by luciferase assay; format: functional, organism-based; conditions: Hepacivirus hominis
PBMC [9] = test: Toxic induction of TNFalpha level in human PBMC assessed as drug level causing maximal cytokine induction after 24 hrs relative to control; format: toxicity, cell-based
Hepatitis C virus [10] = test: Antiviral activity against HCV infected human Huh7 replicon cells treated with 3 uM drug-induced human PBMC supernatants assessed as viral levels in presence of type I IFN receptor antibody by luciferase assay; format: functional, organism-based; conditions: Hepacivirus hominis
Hepatitis C virus [11] = test: Antiviral activity against HCV infected human Huh7 replicon cells treated with 20 uM drug-induced human PBMC supernatants assessed as viral levels in presence of type I IFN receptor antibody by luciferase assay; format: functional, organism-based; conditions: Hepacivirus hominis
Hepatitis C virus [12] = test: Antiviral activity against HCV infected human Huh7 replicon cells treated for 48 hrs with drug-induced single donor human PBMC supernatants assessed as viral levels by luciferase assay; format: functional, organism-based, Hepacivirus hominis
Hepatitis C virus [13] = test: Antiviral activity against HCV infected human Huh7 replicon cells treated for 48 hrs with drug-induced mixed donor human PBMC supernatants assessed as viral levels by luciferase assay; format: functional, organism-based, Hepacivirus hominis
PBMC [14] = test: Toxicity assessed as increase in TNFalpha level in human PBMC after 6 hrs relative to control; format: cell-based
PBMC [15] = test: as §1; format: functional, cell-based; remark: listed apart in the source
PBMC [16] = test: Increase in 2',5'-oligoadenylate synthase level in human PBMC after 24 hrs relative to control; format: functional, cell-based
PBMC [17] = test: Toxicity assessed as increase in IL6 level in human PBMC after 24 hrs relative to control; format: functional, cell-based
Hepatitis C virus [18] = test: Antiviral activity against HCV infected human Huh7 replicon cells treated for 24 hrs with drug-induced human PBMC supernatants assessed as viral levels by luciferase assay; format: functional, organism-based; conditions: Hepacivirus hominis
Hepatitis C virus [19] = test: Antiviral activity against HCV infected human Huh7 replicon cells treated with 100 nM drug-induced human PBMC supernatants assessed as viral levels in presence of type I IFN receptor antibody by luciferase assay; format: functional, organism-based; conditions: Hepacivirus hominis

Q: Which results are given for COCCOc1nc(N)c2[nH]c(=O)n(Cc3ccccc3)c2n1?
A: Activity (PBMC [1]): 1 µM; Activity (PBMC [2]): 0.1 µM; Activity (PBMC [3]): 1 µM; Activity (Hepatitis C virus [4]): Active; Activity (Hepatitis C virus [5]): inactive; Activity (PBMC [6]): Dose-dependent effect; Activity (PBMC [7]): Dose-dependent effect; Activity (Hepatitis C virus [8]): inactive; Activity (PBMC [9]): 1 µM

Q: CCCc1nc2c(N)nc3ccccc3c2s1 was tested. Which Activity (PBMC [1]) did it give?
A: 3.3 µM

Q: What about the Activity (PBMC [2]) of the same compound?
A: 10 µM

Q: And the Activity (PBMC [3])?
A: 3.3 µM

Q: And the Activity (Hepatitis C virus [4])?
A: Active

Q: And the Activity (Hepatitis C virus [5])?
A: inactive

Q: And the Activity (PBMC [6])?
A: Dose-dependent effect

Q: And the Activity (PBMC [7])?
A: Dose-dependent effect

Q: And the Activity (Hepatitis C virus [10])?
A: inactive

Q: And the Activity (PBMC [9])?
A: 10 µM

Q: What does the source list for Cc1cn([C@H]2C[C@H](OP(=O)(O)OC[C@H]3O[C@@H](n4cnc5c(=O)[nH]c(N)nc54)[C@H](O)[C@@H]3OP(=O)(O)OC[C@H]3O[C@@H](n4cc(C)c(=O)[nH]c4=O)C[C@@H]3OP(=O)(O)OC[C@H]3O[C@@H](n4cc(C)c(=O)[nH]c4=O)C[C@@H]3OP(=O)(O)OC[C@H]3O[C@@H](n4cc(C)c(=O)[nH]c4=O)C[C@@H]3OP(=O)(O)OC[C@H]3O[C@@H](n4cc(C)c(=O)[nH]c4=O)C[C@@H]3OP(=O)(O)OC[C@H]3O[C@@H](n4cnc5c(=O)[nH]c(N)nc54)[C@H](O)[C@@H]3OP(=O)(S)OC[C@H]3O[C@@H](n4ccc(N)nc4=O)[C@H](O)[C@@H]3OP(=O)(O)OC[C@H]3O[C@@H](n4cc(C)c(=O)[nH]c4=O)C[C@@H]3OP(=O)(O)OC[C@H]3O[C@@H](n4cc(C)c(=O)[nH]c4=O)C[C@@H]3O)[C@@H](COP(=O)(O)OC[C@H]3O[C@@H](n4cnc5c(=O)[nH]c(N)nc54)[C@H](O)[C@@H]3OP(O)(=S)OC[C@H]3O[C@@H](n4ccc(N)nc4=O)[C@H](O)[C@@H]3OP(=O)(O)OC[C@H]3O[C@@H](n4cc(C)c(=O)[nH]c4=O)C[C@@H]3OP(=O)(O)OC[C@H]3O[C@@H](n4cnc5c(=O)[nH]c(N)nc54)[C@H](O)[C@@H]3OP(=O)(O)OC[C@H]3O[C@@H](n4cc(C)c(=O)[nH]c4=O)C[C@@H]3OP(=O)(O)OC[C@H]3O[C@@H](n4cc(C)c(=O)[nH]c4=O)C[C@@H]3OP(=O)(O)OC[C@H]3O[C@@H](n4cc(C)c(=O)[nH]c4=O)C[C@@H]3OP(=O)(O)OC[C@H]3O[C@@H](n4cc(C)c(=O)[nH]c4=O)C[C@@H]3OP(=O)(O)OC[C@H]3O[C@@H](n4cnc5c(=O)[nH]c(N)nc54)[C@H](O)[C@@H]3OP(O)(=S)OC[C@H]3O[C@@H](n4ccc(N)nc4=O)[C@H](O)[C@@H]3OP(=O)(O)OC[C@H]3O[C@@H](n4cc(C)c(=O)[nH]c4=O)C[C@@H]3OP(=O)(O)OC[C@H]3O[C@@H](n4cc(C)c(=O)[nH]c4=O)C[C@@H]3O)O2)c(=O)[nH]c1=O (some centres not stated)?
A: Activity (PBMC [1]): 5 µM; Activity (PBMC [2]): 0.2 µM; Activity (PBMC [3]): 0.2 µM; Activity (Hepatitis C virus [4]): Active; Activity (Hepatitis C virus [5]): inactive; Activity (PBMC [6]): Dose-dependent effect; Activity (PBMC [7]): Dose-dependent effect; Activity (PBMC [9]): 5 µM

Q: What does the source list for CCCCCCCCCCCCCCCC(=O)N[C@@H](CSCC(COC(=O)CCCCCCCCCCCCCCC)OC(=O)CCCCCCCCCCCCCCC)C(=O)N[C@@H](CO)C(=O)N[C@@H](CCCCN)C(=O)N[C@@H](CCCCN)C(=O)N[C@@H](CCCCN)C(=O)N[C@@H](CCCCN)C(=O)O (some centres not stated) (Palmitoyl-C(X1)SKKKK-OH)?
A: Activity (PBMC [1]): 1 µM; Activity (PBMC [2]): 0.3 µM; Activity (PBMC [3]): 1 µM; Activity (Hepatitis C virus [4]): Active; Activity (Hepatitis C virus [5]): inactive; Activity (PBMC [9]): 0.1 µM

Q: Which Activity (PBMC [1]) does the source give for CC(C)Cn1cnc2c(N)nc3ccccc3c21 [IMIQUIMOD] here?
A: 0.1 µg/mL

Q: And the Activity (PBMC [2])?
A: 1 µg/mL

Q: What about the Activity (PBMC [3]) of the same compound?
A: 1 µg/mL

Q: What about the Activity (Hepatitis C virus [4]) of the same compound?
A: Active

Q: What about the Activity (Hepatitis C virus [5]) of the same compound?
A: inactive

Q: And the Activity (PBMC [6])?
A: Dose-dependent effect

Q: And the Activity (PBMC [7])?
A: Dose-dependent effect

Q: And the Activity (Hepatitis C virus [11])?
A: inactive

Q: What about the Activity (PBMC [9]) of the same compound?
A: 1 µg/mL

Q: What does the source list for CCOCc1nc2c(N)nc3ccccc3c2n1CC(C)(C)O [RESIQUIMOD]?
A: Activity (PBMC [1]): 1 µM; Activity (PBMC [2]): 0.1 µM; Activity (PBMC [3]): 1 µM; EC50 (Hepatitis C virus [12]): 26.5 nM; EC50 (Hepatitis C virus [13]): 24 nM; fold change (FC) (PBMC [14]): 2.5; Activity (PBMC [15]): Active; Activity (PBMC [16]): Active; Activity (PBMC [17]): Active; Activity (Hepatitis C virus [18]): Active; Activity (Hepatitis C virus [4]): Active; Activity (Hepatitis C virus [5]): inactive; Activity (PBMC [6]): Dose-dependent effect; Activity (PBMC [7]): Dose-dependent effect; Activity (Hepatitis C virus [19]): inactive; Activity (PBMC [9]): 1 µM
